Values after ≈ are worked out from the molar mass of the structure shown.
The compounds below were run on M. catarrhalis A894 (assay: Minimal inhibitory concentration (MIC), microdilution method in cation-adjusted Mueller-Hinton Broth (CLSI M7-A7)). Conditions: Moraxella catarrhalis, strain A894.
Assay type: cell-based
Description: Minimal inhibitory concentrations (MICs; mg/1) were determined in cation-adjusted Mueller-Hinton Broth by a microdilution method following the description given in “Methods for Dilution Antimicrobial Susceptibility Tests for Bacteria that Grow Aerobically”, Approved standard, 7th ed., Clinical and Laboratory Standards Institute (CLSI) Document M7-A7, Wayne, Pa., USA, 2006.
CCCc1ccc(N2C[C@@H](CNCC3Cn4c(=O)ccc5ccc(F)c3c54)OC2=O)cc1 (mixture of isomers) [Example 37, (RS)-9-fluoro-1-({[(R)-2-oxo-3-(4-propyl-phenyl)-oxazolidin-5-ylmethyl]-amino}-methyl)-1,2-dihydro-pyrrolo[3,2,1-ij]quinolin-4-one] showed an MIC of 1 µg/mL. In the case of O=C1CSc2ccc(N3C[C@@H](CCCN[C@@H]4Cn5c(=O)ccc6cccc4c65)OC3=O)cc2N1 [Example 72, (S)-1-{3-[(R)-2-oxo-3-(3-oxo-3,4-dihydro-2H-benzo[1,4]thiazin-6-yl)-oxazolidin-5-yl]-propylamino}-1,2-dihydro-pyrrolo[3,2,1-ij]quinolin-4-one], the MIC is reported as ≤ 0.031 µg/mL. With O=C1CSc2ccc(N3C[C@@H](CN(CCO)CCC4Cn5c(=O)ccc6ccc(F)c4c65)OC3=O)cc2N1 (mixture of isomers) [Example 69, (RS)-9-fluoro-1-(2-{(2-hydroxy-ethyl)-[(R)-2-oxo-3-(3-oxo-3,4-dihydro-2H-benzo[1,4]thiazin-6-yl)-oxazolidin-5-ylmethyl]-amino}-ethyl)-1,2-dihydro-pyrrolo[3,2,1-ij]quinolin-4-one] the MIC was ≤ 0.031 µg/mL. In the case of Cc1ccc(N2C[C@@H](CNCC3Cn4c(=O)ccc5ccc(F)c3c54)OC2=O)cc1F (mixture of isomers) [Example 33, (1RS)-9-fluoro-1-({[(R)-3-(3-fluoro-4-methyl-phenyl)-2-oxo-oxazolidin-5-ylmethyl]-amino}-methyl)-1,2-dihydro-pyrrolo[3,2,1-ij]quinolin-4-one], the MIC is reported as 16 µg/mL. In the case of O=C1COc2ccc(N3C[C@H](CCCN[C@H]4Cn5c(=O)ccc6ccc(F)c4c65)OC3=O)nc2N1 [Example 193, (R)-9-fluoro-1-{3-[(S)-2-oxo-3-(3-oxo-3,4-dihydro-2H-pyrido[3,2-b][1,4]oxazin-6-yl)-oxazolidin-5-yl]-propylamino}-1,2-dihydro-pyrrolo[3,2,1-ij]quinolin-4-one], the MIC is reported as ≤ 0.031 µg/mL. With O=C1COc2ccc(N3C[C@H](CCCN[C@@H]4Cn5c(=O)ccc6ccc(F)c4c65)OC3=O)nc2N1 [Example 189, (S)-9-fluoro-1-{3-[(S)-2-oxo-3-(3-oxo-3,4-dihydro-2H-pyrido[3,2-b][1,4]oxazin-6-yl)-oxazolidin-5-yl]-propylamino}-1,2-dihydro-pyrrolo[3,2,1-ij]quinolin-4-one] the MIC was ≤ 0.031 µg/mL. With O=C1COc2ccc(N3C[C@H](CCCNC4Cn5c(=O)ccc6ncc(F)c4c65)OC3=O)cc2N1 (mixture of isomers) [Example 97, (RS)-3-fluoro-4-{3-[(S)-2-oxo-3-(3-oxo-3,4-dihydro-2H-benzo[1,4]oxazin-6-yl)-oxazolidin-5-yl]-propylamino}-4,5-dihydro-pyrrolo[3,2,1-de][1,5]naphthyridin-7-one] the MIC was ≤ 0.031 µg/mL. CCCc1ccc(N2C[C@@H](CCNCC3Cn4c(=O)ccc5ccc(F)c3c54)OC2=O)cc1 (mixture of isomers) [Example 45, (RS)-9-fluoro-1-({2-[(R)-2-oxo-3-(4-propyl-phenyl)-oxazolidin-5-yl]-ethylamino}-methyl)-1,2-dihydro-pyrrolo[3,2,1-ij]quinolin-4-one] was tested, and the MIC was 0.063 µg/mL. In the case of O=C1COc2ccc(N3C[C@H](CCCNC4Cn5c(=O)ccc6ccc(F)c4c65)OC3=O)nc2N1 (mixture of isomers) [Example 124, (RS)-9-fluoro-1-{3-[(S)-2-oxo-3-(3-oxo-3,4-dihydro-2H-pyrido[3,2-b][1,4]oxazin-6-yl)-oxazolidin-5-yl]-propylamino}-1,2-dihydro-pyrrolo[3,2,1-ij]quinolin-4-one], the MIC is reported as ≤ 0.031 µg/mL. In the case of O=C1CSc2ccc(N3C[C@H](CNCC4Cn5c(=O)ccc6cccc4c65)OC3=O)cc2N1 (mixture of isomers) [Example 81, (RS)-1-({[(S)-2-oxo-3-(3-oxo-3,4-dihydro-2H-benzo[1,4]thiazin-6-yl)-oxazolidin-5-ylmethyl]-amino}-methyl)-1,2-dihydro-pyrrolo[3,2,1-ij]quinolin-4-one], the MIC is reported as ≤ 0.031 µg/mL. In the case of O=C1CSc2ccc(N3C[C@H](CNCC4Cn5c(=O)cnc6cccc4c65)OC3=O)cc2N1 (mixture of isomers) [Example 106, (RS)-6-({[(S)-2-oxo-3-(3-oxo-3,4-dihydro-2H-benzo[1,4]thiazin-6-yl)-oxazolidin-5-ylmethyl]-amino}-methyl)-5,6-dihydro-pyrrolo[1,2,3-de]quinoxalin-3-one], the MIC is reported as ≤ 0.031 µg/mL. With O=C1COc2ccc(N3C[C@H](CCCN[C@@H]4Cn5c(=O)ccc6ncc(F)c4c65)OC3=O)cc2N1 [Example 149, (S)-3-fluoro-4-{3-[(S)-2-oxo-3-(3-oxo-3,4-dihydro-2H-benzo[1,4]oxazin-6-yl)-oxazolidin-5-yl]-propylamino}-4,5-dihydro-pyrrolo[3,2,1-de][1,5]naphthyridin-7-one] the MIC was ≤ 0.031 µg/mL. For O=C1CSc2ccc(N3C[C@H](CCCN[C@@H]4Cn5c(=O)ccc6ccc(F)c4c65)OC3=O)cc2N1 [Example 130, (S)-9-fluoro-1-{3-[(S)-2-oxo-3-(3-oxo-3,4-dihydro-2H-benzo[1,4]thiazin-6-yl)-oxazolidin-5-yl]-propylamino}-1,2-dihydro-pyrrolo[3,2,1-ij]quinolin-4-one], the MIC was ≤ 0.031 µg/mL. In the case of O=C1COc2ccc(N3C[C@@H](CCCNCC4Cn5c(=O)ccc6ccc(F)c4c65)OC3=O)cc2N1 (mixture of isomers) [Example 52, (RS)-9-fluoro-1-({3-[(R)-2-oxo-3-(3-oxo-3,4-dihydro-2H-benzo[1,4]oxazin-6-yl)-oxazolidin-5-yl]-propylamino}-methyl)-1,2-dihydro-pyrrolo[3,2,1-ij]quinolin-4-one], the MIC is reported as ≤ 0.031 µg/mL. O=C1CSc2ccc(N3C[C@@H](CCNCC4Cn5c(=O)cnc6cccc4c65)OC3=O)cc2N1 (mixture of isomers) [Example 156, (RS)-6-({2-[(R)-2-oxo-3-(3-oxo-3,4-dihydro-2H-benzo[1,4]thiazin-6-yl)-oxazolidin-5-yl]-ethylamino}-methyl)-5,6-dihydro-pyrrolo[1,2,3-de]quinoxalin-3-one] was tested, and the MIC was ≤ 0.031 µg/mL. With O=C1CSc2ccc(N3C[C@@H](CCCN[C@@H]4CN5C(=O)CNc6cccc4c65)OC3=O)cc2N1 [Example 114, (S)-6-{3-[(R)-2-oxo-3-(3-oxo-3,4-dihydro-2H-benzo[1,4]thiazin-6-yl)-oxazolidin-5-yl]-propylamino}-1,2,5,6-tetrahydro-pyrrolo[1,2,3-de]quinoxalin-3-one] the MIC was ≤ 0.031 µg/mL. For O=C1CSc2ccc(N3C[C@@H](CCCN[C@H]4Cn5c(=O)ccc6ncc(F)c4c65)OC3=O)cc2N1 [Example 138, (R)-3-fluoro-4-{3-[(R)-2-oxo-3-(3-oxo-3,4-dihydro-2H-benzo[1,4]thiazin-6-yl)-oxazolidin-5-yl]-propylamino}-4,5-dihydro-pyrrolo[3,2,1-de][1,5]naphthyridin-7-one], the MIC was ≤ 0.031 µg/mL. O=C1COc2ccc(N3C[C@@H](CCCN(CCO)[C@@H]4Cn5c(=O)cnc6ccc(F)c4c65)OC3=O)cc2N1 [Example 67, (S)-7-fluoro-6-((2-hydroxy-ethyl)-{3-[(R)-2-oxo-3-(3-oxo-3,4-dihydro-2H-benzo[1,4]oxazin-6-yl)-oxazolidin-5-yl]-propyl}-amino)-5,6-dihydro-pyrrolo[1,2,3-de]quinoxalin-3-one] was tested, and the MIC was ≤ 0.063 µg/mL. For O=C1CSc2ccc(N3C[C@H](CCNC[C@]4(O)Cn5c(=O)ccc6nccc4c65)OC3=O)cc2N1 [Example 173, (S)-4-hydroxy-4-({2-[(S)-2-oxo-3-(3-oxo-3,4-dihydro-2H-benzo[1,4]thiazin-6-yl)-oxazolidin-5-yl]-ethylamino}-methyl)-4,5-dihydro-pyrrolo[3,2,1-de][1,5]naphthyridin-7-one], the MIC was 0.125 µg/mL (≈ 0.253 µM). With O=C1CSc2ccc(N3C[C@H](CCNCC4Cn5c(=O)ccc6ccc(F)c4c65)OC3=O)nc2N1 (mixture of isomers) [Example 198, (RS)-9-fluoro-1-({2-[(S)-2-oxo-3-(3-oxo-3,4-dihydro-2H-pyrido[3,2-b][1,4]thiazin-6-yl)-oxazolidin-5-yl]-ethylamino}-methyl)-1,2-dihydro-pyrrolo[3,2,1-ij]quinolin-4-one] the MIC was ≤ 0.031 µg/mL. With O=C1CSc2ccc(N3C[C@H](CNCC4Cn5c(=O)ccc6ncc(F)c4c65)OC3=O)cc2N1 (mixture of isomers) [Example 101, (RS)-3-fluoro-4-({[(S)-2-oxo-3-(3-oxo-3,4-dihydro-2H-benzo[1,4]thiazin-6-yl)-oxazolidin-5-ylmethyl]-amino}-methyl)-4,5-dihydro-pyrrolo[3,2,1-de][1,5]naphthyridin-7-one] the MIC was ≤ 0.031 µg/mL.

Same assay, conditions: strain A894
With “(RS)-1-({[(R)-3-(4-ethoxy-phenyl)-2-oxo-oxazolidin-5-ylmethyl]-amino}-methyl)-9-fluoro-1,2-dihydro-pyrrolo[3,2,1-ij]quinolin-4-one [Example 36]” the “MIC for M. catarrhalis A894” value was 8 µg/mL. “(1R,2R)-4-oxo-1-{3-[(S)-2-oxo-3-(3-oxo-3,4-dihydro-2H-benzo[1,4]thiazin-6-yl)-oxazolidin-5-yl]-propylamino}-1,2-dihydro-4H-pyrrolo[3,2,1-ij]quinoline-2-carboxylic acid methyl ester and (1S,2S)-4-oxo-1-{3-[(S)-2-oxo-3-(3-oxo-3,4-dihydro-2H-benzo[1,4]thiazin-6-yl)-oxazolidin-5-yl]-propylamino}-1,2-dihydro-4H-pyrrolo[3,2,1-ij]quinoline-2-carboxylic acid methyl ester [Example 162]” was tested, and the “MIC for M. catarrhalis A894” value was 0.25 µg/mL. For “(1R,2S)-2-methyl-1-{3-[(S)-2-oxo-3-(3-oxo-3,4-dihydro-2H-pyrido[3,2-b][1,4]thiazin-6-yl)-oxazolidin-5-yl]-propylamino}-1,2-dihydro-pyrrolo[3,2,1-ij]quinolin-4-one and (1S,2R)-2-methyl-1-{3-[(S)-2-oxo-3-(3-oxo-3,4-dihydro-2H-pyrido[3,2-b][1,4]thiazin-6-yl)-oxazolidin-5-yl]-propylamino}-1,2-dihydro-pyrrolo[3,2,1-ij]quinolin-4-one [Example 169]”, the “MIC for M. catarrhalis A894” value was “≦0.031 mg/l”.
